Laboratory results published in patent publication US8841299B2, “Substituted pyrrolo[1,2-a]pyrazines as tankyrase inhibitors” (Hoffman-La Roche Inc., priority 2012, dated 2014).

Columns and labels:
Tankyrase 1 (TNKS1) = molecular target: T1, Tankyrase 1 (TNKS1) (Homo sapiens, UniProt O95271); test: μHTS-TNKS-IWR2 TR-FRET binding assay, TNKS1
T1 construct: His6-TNKS1, MW=28.2 KDa (construct: 1088-1327, I266M)
Method: (§1) μHTS-TNKS-IWR2 TR-FRET Binding Assay
(§2) (10 μL/well in BD1536-well plate, a single point)
(§3) Biotin-IWR2: 10 mM Biotin-IWR2 stock in DMSO, stored at −20° C.
(§4) Assay buffer 1a (AB1a) for TNKS dilution: 50 mM Tris, pH 7.4, 100 mM sodium chloride solution, 1 mM magnesium chloride solution, 1 mM DL-dithiothreitol solution, 0.2 mg/mL bovine serum albumin solution, 0.025% NP-40.
(§5) Assay buffer 1b (AB1b) for Biotin-IWR2 dilution: 50 mM Tris, pH 7.4, 100 mM sodium chloride solution, 1 mM magnesium chloride solution, 1 mM DL-dithiothreitol solution, 0.2 mg/mL bovine serum albumin solution, 0.05% NP-40
(§6) Assay buffer 1c (AB1c) for compound dilution: 50 mM Tris, pH 7.4, 100 mM sodium chloride solution, 1 mM magnesium chloride solution, 1 mM DL-dithiothreitol solution, 0.2 mg/mL bovine serum albumin solution
(§7) Assay buffer 2 (AB2) for Eu/APC: 50 mM Tris, pH 7.4, 100 mM sodium chloride solution, 1 mM magnesium chloride solution, 0.2 mg/mL bovine serum albumin solution
(§8) Prepare BLANK well stock solution: 5% DMSO/AB1b buffer
(§9) Prepare TNKS1 stock solution (5× stock): 300 nM TNKS in AB1a buffer
(§10) Transfer 3 μL/well of above solution (solution 1, 2, 3) to an empty assay plate (BD1536-well plate) as follows:
(§11) TOTAL and cpd wells: Solution 1 (Biotin-IWR2):
(§12) BLANK wells: Solution 2 (No Biotin-IWR2):
(§13) POSITIVE CONTROL wells: Solution 3 (Biotin-IWR2+XAV939)
(§14) Transfer 3 μL/well of the above diluted compound solutions or compound dilution buffer to the above assay plate.
(§15) Add 2 μL/well of 300 nM TNKS stock solution (4) to every well in the above assay plate
(§16) Centrifuge the assay plate at 2100 rpm for 2 minutes.
(§17) Incubate the assay plate at 26° C. for 30 minutes.
(§18) Add 2 μL/well 3.5 nMEu/50 nM APC solution (5) to every well in the above assay plate.
(§19) Incubate the assay plate at 26° C. for 60 minutes.

tankyrase 2 (TNKS2) = molecular target: T2, tankyrase 2 (TNKS2) (Homo sapiens, UniProt Q9H2K2); test: μHTS-TNKS-IWR2 TR-FRET binding assay, TNKS2 in place of TNKS1; details: His6-TNKS2 (construct 934-1166), Biotin-IWR2 60 nM
T2 construct: His6-tankyrase 2 (construct: 934-1166) (His6-TNKS2)
T2 sequence (Q9H2K2 934-1166): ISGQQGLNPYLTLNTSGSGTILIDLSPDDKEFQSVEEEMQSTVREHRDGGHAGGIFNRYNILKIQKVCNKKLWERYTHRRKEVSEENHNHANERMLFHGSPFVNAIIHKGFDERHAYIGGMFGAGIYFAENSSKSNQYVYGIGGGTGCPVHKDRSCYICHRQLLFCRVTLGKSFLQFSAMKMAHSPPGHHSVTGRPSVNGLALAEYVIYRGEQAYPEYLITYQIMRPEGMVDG
Method: as §1, §2
(§20) Tankyrase 1 (TNKS1): 184.3 μM=5.2 mg/mL His6-TNKS1, MW=28.2 KDa (construct: 1088-1327, I266M) in 20 mM Tris pH 8, 150 mM NaCl, 10% glycerol, and 0.5 mM TCEP Alternatively, in place of His6-TNKS1 can use either His6-tankyrase 2 (construct: 934-1166) (His6-TNKS2) or His6-PARP1 (full length).
as §3
Positive control: 10 mM XAV 939 in DMSO, stored at −20° C.
(§21) Eu-Streptavidin: 38.1 μM (2.1 mg/mL) Eu-SA (Bio #Eu-2212, Lot #N 18001-BDHO2)
(§22) APC-anti-His Ab: 8.50 μM SL-APC, 8.26 μM anti-6His antibody-SureLight APC (Columia Bioscience, Cat #D3-1711, Lot #N01010-AAH04)
(§23) Assay plate: BD 1536-well, clear/black plate (Cat #353255)
as §4, §5, §6, §7
(§24) Prepare Biotinylated IWR2 stock solution (3.33× stock) for TOTL and cpd wells: 200 nM Biotin-IWR2 in 5% DMSO/AB1b buffer
as §8
(§25) Prepare POSITIVE CONTROL well stock solution (3.33× stock): 200 nM XAV939 in 200 nM Biotin-IWR2/5% DMSO/AB1b buffer
as §9
(§26) (Alternatively, use TNKS2 or PARP1 stock solutions.)
(§27) Prepare Eu/APC stock solution (5× stock): 3.5 nM Eu-SA/50 nM APC-His6Ab in AB2 buffer
(§28) Add 25 μL/well 1.5% DMSO/AB1c buffer in each compound well to the compound concentration at 74 μM in 8.8% DMSO/AB1c buffer or in the 2 μL DMSO CONTROL wells (BLANK, TOTAL and POSITIVE wells) in the compound plate.
as §10, §11, §12, §13, §14, §15, §16, §17, §18, §19
(§29) Read the assay plate immediately at excitation wavelength of 330 nm and emission wavelength of […] in time resolved fluorescence mode.
XAV939 (+ve control): 60 nM at ˜70% Inhibition
(§30) General Library compounds: 22.23 μM in 4% DMSO

PARP1 = molecular target: T3, PARP1 (Homo sapiens, UniProt P09874); test: μHTS-TNKS-IWR2 TR-FRET binding assay, PARP1 in place of TNKS1; details: His6-PARP1 (full length), Biotin-IWR2 60 nM
T3 construct: or His6-PARP1 (full length)
T3 sequence (P09874 whole entry): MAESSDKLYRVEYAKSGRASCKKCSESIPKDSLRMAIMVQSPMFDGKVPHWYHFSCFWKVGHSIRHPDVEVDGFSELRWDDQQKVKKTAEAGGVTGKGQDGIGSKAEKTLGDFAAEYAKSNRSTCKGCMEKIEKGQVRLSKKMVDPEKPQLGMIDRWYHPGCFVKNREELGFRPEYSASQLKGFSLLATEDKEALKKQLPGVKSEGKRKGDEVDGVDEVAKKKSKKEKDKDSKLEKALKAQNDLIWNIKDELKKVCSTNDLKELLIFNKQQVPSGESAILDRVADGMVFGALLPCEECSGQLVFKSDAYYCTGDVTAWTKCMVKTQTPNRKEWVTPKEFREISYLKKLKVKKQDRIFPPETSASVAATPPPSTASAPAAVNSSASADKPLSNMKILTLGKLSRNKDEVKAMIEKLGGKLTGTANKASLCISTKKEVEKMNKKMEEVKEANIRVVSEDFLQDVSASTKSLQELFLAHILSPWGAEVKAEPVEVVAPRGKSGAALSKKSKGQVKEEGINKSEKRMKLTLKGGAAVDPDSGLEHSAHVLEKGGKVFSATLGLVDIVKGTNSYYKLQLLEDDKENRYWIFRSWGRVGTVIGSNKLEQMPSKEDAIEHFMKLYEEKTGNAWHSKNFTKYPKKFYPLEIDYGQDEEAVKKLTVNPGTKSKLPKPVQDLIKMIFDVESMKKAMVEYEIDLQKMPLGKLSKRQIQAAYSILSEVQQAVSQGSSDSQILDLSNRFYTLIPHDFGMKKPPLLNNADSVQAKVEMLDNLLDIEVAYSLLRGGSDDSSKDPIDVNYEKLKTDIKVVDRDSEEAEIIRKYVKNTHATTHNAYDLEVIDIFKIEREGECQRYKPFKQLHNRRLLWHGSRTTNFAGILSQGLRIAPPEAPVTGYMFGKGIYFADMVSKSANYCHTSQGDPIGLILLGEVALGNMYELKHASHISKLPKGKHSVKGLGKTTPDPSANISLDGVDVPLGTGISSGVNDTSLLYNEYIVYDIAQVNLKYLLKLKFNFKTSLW
Method: as §1, §2, §20, §3
Positive control: 10 mM […] in DMSO, stored at −20° C.
as §21, §22, §23, §4, §5, §6, §7, §24, §8, §25, §9, §26, §27, §28, §10, §11, §12, §13, §14, §15, §16, §17, §18, §19, §29, §30

T1 sequence (O95271 1088-1327): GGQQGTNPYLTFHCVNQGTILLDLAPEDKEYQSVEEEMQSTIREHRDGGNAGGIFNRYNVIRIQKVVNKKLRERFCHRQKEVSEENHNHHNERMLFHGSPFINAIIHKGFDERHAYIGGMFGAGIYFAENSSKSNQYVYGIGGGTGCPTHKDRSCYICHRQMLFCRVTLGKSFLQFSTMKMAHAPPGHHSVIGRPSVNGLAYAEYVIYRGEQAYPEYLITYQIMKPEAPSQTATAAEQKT

Compound | IC50 (Tankyrase 1 (TNKS1)) | IC50 (tankyrase 2 (TNKS2)) | IC50 (PARP1)
O=c1[nH]c(-c2ccc(C(F)(F)F)cc2)cn2c(Br)ccc12 [Example 10, 6-Bromo-3-(4-trifluoromethyl-phenyl)-2H-pyrrolo[1,2-a]pyrazin-1-one] | 0.056 µM | 0.158 µM | 1.25 µM
Cc1ccc2c(=O)[nH]c(N3CCN(c4ccccc4F)CC3)cn12 [Example 9, 3-[4-(2-Fluoro-phenyl)-piperazin-1-yl]-6-methyl-2H-pyrrolo[1,2-a]pyrazin-1-one] | 0.068 µM | 0.068 µM | 2.74 µM
O=c1[nH]c(-c2ccc(C(F)(F)F)cc2)cn2c(CO)ccc12 [Example 8, 6-Hydroxymethyl-3-(4-trifluoromethyl-phenyl)-2H-pyrrolo[1,2-a]pyrazin-1-one] | 0.017 µM | 0.715 µM | 11.4 µM
COc1ccc(-c2cn3c(Br)ccc3c(=O)[nH]2)cc1 [Example 1, 6-Bromo-3-(4-methoxy-phenyl)-2H-pyrrolo[1,2-a]pyrazin-1-one] | 0.054 µM | 0.145 µM | > 50 µM
N=C(N)c1ccc2c(=O)[nH]c(-c3ccc(C(F)(F)F)cc3)cn12 [Example 5, 1-Oxo-3-(4-trifluoromethyl-phenyl)-1,2-dihydro-pyrrolo[1,2-a]pyrazine-6-carboxamidine] | 6.79 µM | 12.7 µM | > 50 µM
Cc1ccc2c(=O)[nH]c(-c3ccc(C(F)(F)F)cc3)cn12 [Example 7, 6-Methyl-3-(4-trifluoromethyl-phenyl)-2H-pyrrolo[1,2-a]pyrazin-1-one] | 0.032 µM | 0.072 µM | 0.172 µM
O=c1[nH]c(-c2ccc(C(F)(F)F)cc2)cn2c(C3=NCCN3)ccc12 [Example 6, 6-(4,5-Dihydro-1H-imidazol-2-yl)-3-(4-trifluoromethyl-phenyl)-2H-pyrrolo[1,2-a]pyrazin-1-one] | 1.11 µM | 1.84 µM | 34.9 µM
NC(=O)c1ccc2c(=O)[nH]c(-c3ccc(C(F)(F)F)cc3)cn12 [Example 4, 1-Oxo-3-(4-trifluoromethyl-phenyl)-1,2-dihydro-pyrrolo[1,2-a]pyrazine-6-carboxylic acid amide] | 0.77 µM | 1.9 µM | 29.5 µM
N#Cc1ccc2c(=O)[nH]c(-c3ccc(C(F)(F)F)cc3)cn12 [Example 2, 1-Oxo-3-(4-trifluoromethyl-phenyl)-1,2-dihydro-pyrrolo[1,2-a]pyrazine-6-carbonitrile] | 0.232 µM | 0.995 µM | 31.2 µM
N/C(=N\O)c1ccc2c(=O)[nH]c(-c3ccc(C(F)(F)F)cc3)cn12 [Example 3, N-Hydroxy-1-oxo-3-(4-trifluoromethyl-phenyl)-1,2-dihydro-pyrrolo[1,2-a]pyrazine-6-carboxamidine] | 0.192 µM | 1.26 µM | > 50 µM
